pIC50: −log10 of the molar value. Active and inactive are the calls of the source. No rule for the calls is given here.
Molecular target: Glycogen synthase kinase-3 beta splice variant X1 (Bos taurus) (UniProt A0A059UE90)
Experiment: (§1) Inhibition of bovine cerebral TPK1 assessed as reduction in P-GS1 phosphorylation using [32gammaP]ATP incubated for 2 hrs by liquid scintillation counting method

| SMILES | inhibition |
| --- | --- |
| Cn1c(N2CCOC(c3cccc(-c4cncnc4)c3)C2)nc(-c2ccncc2F)cc1=O (racemic) | Active |
| Cn1c(N2CCO[C@@H](c3ccc(F)cc3)C2)nc(-c2ccncc2F)cc1=O | Active |
| Cn1c(N2CCO[C@@H](c3c(F)cccc3Cl)C2)nc(-c2ccncc2F)c(F)c1=O | Active |
| Cn1c(N2CCOC(c3ccc4c(c3)CC(=O)N4)C2)nc(-c2ccncc2F)cc1=O (racemic) | Active |
| Cn1c(N2CCO[C@@H](c3ccc(N4CC[C@H](N5CCCC5)C4)cc3)C2)nc(-c2ccncc2F)cc1=O | Active |
| CN1CCN(c2ccc([C@H]3CN(c4nc(-c5ccncc5F)cc(=O)n4C)CCN3)cc2)CC1 | Active |
| Cn1c(N2CCO[C@@H](c3ccc(NS(=O)(=O)CCl)cc3)C2)nc(-c2ccncc2F)cc1=O | Active |
| CC(=O)N(c1ccc([C@H]2CN(c3nc(-c4ccncc4F)cc(=O)n3C)CCO2)cc1)C1CCCCC1 | Active |
| Cn1c(N2CCO[C@@H](c3ccc(OC4CCN(C(=O)c5ccccc5)CC4)cc3)C2)nc(-c2ccncc2F)cc1=O | Active |
| CC(=O)OCCN1CCN(c2ccc([C@H]3CN(c4nc(-c5ccncc5F)cc(=O)n4C)CCN3)cc2)CC1 | Active |
| CCN(CC)CCOc1ccc([C@H]2CN(c3nc(-c4ccncc4F)cc(=O)n3C)CCO2)cc1 | Active |
| Cn1c(N2CCO[C@@H](c3ccc(C(=O)NCCO)cc3)C2)nc(-c2ccncc2F)cc1=O | Active |
| Cn1c(N2CCO[C@@H](c3ccc(NC4CCc5ccccc54)cc3)C2)nc(-c2ccncc2F)cc1=O (stereo partly specified) | Active |
| Cn1c(N2CCO[C@@H](c3ccc(Nc4cccnc4)cc3)C2)nc(-c2ccncc2F)cc1=O | Active |
| Cn1c(N2CCN[C@@H](c3ccc(N4CCCC4)cc3)C2)nc(-c2ccncc2F)cc1=O | Active |
| COc1ccc([C@H]2CN(c3nc(-c4ccncc4F)c(Br)c(=O)n3C)CCO2)cc1 | Active |
| Cn1c(N2CCO[C@@H](c3ccc(NC(=O)C4(C)CC4)cc3)C2)nc(-c2ccncc2F)cc1=O | Active |
| Cn1c(N2CCOC(c3ccc4c(c3)C(C)(C)CC(=O)N4)C2)nc(-c2ccncc2F)cc1=O (racemic) | Active |
| CCN(c1ccc([C@H]2CN(c3nc(-c4ccncc4F)cc(=O)n3C)CCO2)cc1)C1CCCCC1 | Active |
| Cc1nc(-c2ccc([C@H]3CN(c4nc(-c5ccncc5F)cc(=O)n4C)CCO3)cc2)no1 | Active |
| CCc1nc(-c2ccc([C@H]3CN(c4nc(-c5ccncc5F)cc(=O)n4C)CCN3)cc2)no1 | Active |
| Cn1c(N2CCN[C@@H](c3ccc(-c4ccc(S(C)(=O)=O)cc4)cc3)C2)nc(-c2ccncc2F)cc1=O | Active |

| SMILES | inhibition |
| --- | --- |
| Cn1c(N2CCO[C@@H](c3ccc(C(=O)NC4CCCCC4)cc3)C2)nc(-c2ccncc2F)cc1=O | Active |
| CN1CCN(CCCOc2ccc([C@H]3CN(c4nc(-c5ccncc5F)cc(=O)n4C)CCO3)cc2)CC1 | Active |
| CC(C)Nc1ccc([C@H]2CN(c3nc(-c4ccncc4F)cc(=O)n3C)CCO2)cc1 | Active |
| Cn1c(N2CCN[C@@H](c3ccc(N4CC[C@H](C#N)C4)cc3)C2)nc(-c2ccncc2F)cc1=O | Active |
| Cn1c(N2CCN[C@@H](c3ccc(-c4ccc(Cl)cc4Cl)cc3)C2)nc(-c2ccncc2F)cc1=O | Active |
| CN1CCN(c2ccc([C@H]3CN(c4nc(-c5ccncc5F)cc(=O)n4C)CCO3)cc2)CC1 | Active |
| Cn1c(N2CCO[C@@H](c3ccc(N4CCN(c5ccccc5)CC4)cc3)C2)nc(-c2ccncc2F)cc1=O | Active |
| CC(C)c1ccc([C@H]2CN(c3nc(-c4ccncc4F)cc(=O)n3C)CCO2)cc1 | Active |
| COc1ccc(C(C)(C)O)cc1[C@H]1CN(c2nc(-c3ccncc3F)cc(=O)n2C)CCO1 | Active |
| COc1ccc(NC(=O)C2CC2)cc1[C@H]1CN(c2nc(-c3ccncc3F)cc(=O)n2C)CCO1 | Active |
| CC(=O)N(c1ccc([C@H]2CN(c3nc(-c4ccncc4F)cc(=O)n3C)CCO2)cc1)C(C)C | Active |
| Cn1c(N2CCO[C@@H](c3ccc(N4CCN(CCO)C4=O)cc3)C2)nc(-c2ccncc2F)cc1=O | Active |
| Cn1c(N2CCO[C@@H](c3ccc(NC(=O)c4ccccc4)cc3)C2)nc(-c2ccncc2F)cc1=O | Active |
| CN(c1ccc([C@H]2CN(c3nc(-c4ccncc4F)cc(=O)n3C)CCN2)cc1)C1CCCCC1 | Active |
| Cn1c(N2CCO[C@@H](c3ccc(OC4CCCCC4)cc3)C2)nc(-c2ccncc2F)cc1=O | Active |
| Cn1c(N2CCO[C@@H](c3cccc(NC(=O)C4CC4)c3)C2)nc(-c2ccncc2F)cc1=O | Active |
| Cn1c(N2CCO[C@@H](c3ccc(N4CC(O)C4)cc3)C2)nc(-c2ccncc2F)cc1=O | Active |
| Cn1c(N2CCO[C@@H](c3ccc(NC(=O)C4CCCC4)cc3)C2)nc(-c2ccncc2F)cc1=O | Active |
| Cn1c(N2CCO[C@@H](c3ccc(N(C4CCCCC4)S(C)(=O)=O)cc3)C2)nc(-c2ccncc2F)cc1=O | Active |
| Cn1c(N2CCN[C@@H](c3ccc(-c4ccc(Cl)c(Cl)c4)cc3)C2)nc(-c2ccncc2F)cc1=O | Active |
| Cn1c(N2CCO[C@@H](c3ccc(OCCN4CCN(C(=O)c5ccccc5)CC4)cc3)C2)nc(-c2ccncc2F)cc1=O | Active |
| Cn1c(N2CCO[C@@H](c3ccc(N(CCO)C4CCCCC4)cc3)C2)nc(-c2ccncc2F)cc1=O | Active |

| SMILES | inhibition |
| --- | --- |
| CN(c1ccc([C@H]2CN(c3nc(-c4ccncc4F)cc(=O)n3C)CCO2)cc1)C12CC3CC(CC(C3)C1)C2 | Active |
| Cn1c(N2CCO[C@@H](c3ccc(Nc4ccncc4)cc3)C2)nc(-c2ccncc2F)cc1=O | Active |
| CN(C)S(=O)(=O)c1ccc([C@H]2CN(c3nc(-c4ccncc4F)cc(=O)n3C)CCO2)cc1 | Active |
| Cn1c(N2CCN[C@@H](c3ccc(C#N)cc3)C2)nc(-c2ccncc2F)cc1=O | Active |
| Cn1c(N2CCO[C@@H](c3ccc(Nc4ccccn4)cc3)C2)nc(-c2ccncc2F)cc1=O | Active |
| Cc1ccc(-c2ccc([C@H]3CN(c4nc(-c5ccncc5F)cc(=O)n4C)CCN3)cc2)cc1 | Active |
| Cn1c(N2CCO[C@@H](c3ccc(N(CC(F)(F)F)CC(F)(F)F)cc3)C2)nc(-c2ccncc2F)cc1=O | Active |
| Cn1c(N2CCNC(c3ccc(N4CCNCC4)cc3)C2)nc(-c2ccncc2F)cc1=O (stereo unspecified) | Active |
| CSc1ccc([C@H]2CN(c3nc(-c4ccncc4F)cc(=O)n3C)CCO2)cc1 | Active |
| Cn1c(N2CCO[C@@H](c3ccc(OC(F)(F)F)cc3)C2)nc(-c2ccncc2F)cc1=O | Active |
| C[C@@H]1CN(c2ccc([C@H]3CN(c4nc(-c5ccncc5F)cc(=O)n4C)CCO3)cc2)C[C@H](C)O1 | Active |
| CC(=O)N1CCN(CCOc2ccc([C@H]3CN(c4nc(-c5ccncc5F)cc(=O)n4C)CCO3)cc2)CC1 | Active |
| COCCN(c1ccc([C@H]2CN(c3nc(-c4ccncc4F)cc(=O)n3C)CCO2)cc1)C1CCCCC1 | Active |
| CC(C)N1CCN(c2ccc([C@H]3CN(c4nc(-c5ccncc5F)cc(=O)n4C)CCN3)cc2)CC1 | Active |
| Cn1c(N2CCO[C@@H](c3ccc(OCCCN4CCOCC4)cc3)C2)nc(-c2ccncc2F)cc1=O | Active |
| Cn1c(N2CCO[C@@H](c3ccc(N4CCN(CCO)CC4)cc3)C2)nc(-c2ccncc2F)cc1=O | Active |
| Cn1c(N2CCO[C@@H](c3ccc(C(=O)NCc4ccccc4)cc3)C2)nc(-c2ccncc2F)cc1=O | Active |
| Cn1c(N2CCN[C@@H](c3ccc(N4CC[C@H](N5CCCC5)C4)cc3)C2)nc(-c2ccncc2F)cc1=O | Active |
| CC(=O)N(C)[C@@H]1CCN(c2ccc([C@H]3CN(c4nc(-c5ccncc5F)cc(=O)n4C)CCO3)cc2)C1 | Active |
| CCN(CC)C(=O)Nc1ccc([C@H]2CN(c3nc(-c4ccncc4F)cc(=O)n3C)CCO2)cc1 | Active |

Molecular target: Glycogen synthase kinase-3 beta splice variant X1 (Bos taurus, UniProt A0A059UE90)
Experiment: as §1

| SMILES | pIC50 |
| --- | --- |
| Cn1c(N2CCO[C@@H](c3ccc(OCCN4CCOCC4)cc3)C2)nc(-c2ccncc2F)cc1=O | 8.96 |
| COC(=O)Nc1ccc([C@H]2CN(c3nc(-c4ccncc4F)cc(=O)n3C)CCO2)cc1 | 8.92 |
| Cn1c(N2CCN[C@@H](c3ccc(N4CCN(c5ccccc5)CC4)cc3)C2)nc(-c2ccncc2F)cc1=O | 9.28 |
| Cn1c(N2CCO[C@@H](c3ccc(N[C@@H]4CCOC4)cc3)C2)nc(-c2ccncc2F)cc1=O | 8.57 |
| Cn1c(N2CCO[C@@H](c3ccc(NC(=O)C(C)(C)C)cc3)C2)nc(-c2ccncc2F)cc1=O | 8.38 |
| Cn1c(N2CCN[C@@H](c3ccc(-c4ncon4)cc3)C2)nc(-c2ccncc2F)cc1=O | 8.32 |
| CN(C)C(=O)Nc1ccc([C@H]2CN(c3nc(-c4ccncc4F)cc(=O)n3C)CCO2)cc1 | 7.96 |
| CC(C)Oc1ccc(-c2ccc([C@H]3CN(c4nc(-c5ccncc5F)cc(=O)n4C)CCN3)cc2)cc1 | 8.92 |
| Cc1nc(-c2ccc([C@H]3CN(c4nc(-c5ccncc5F)cc(=O)n4C)CCN3)cc2)no1 | 8.54 |
| Cn1c(N2CCO[C@@H](c3ccc(N)cc3)C2)nc(-c2ccncc2F)cc1=O | 8.54 |
| Cn1c(N2CCO[C@@H](c3ccc(NC(=O)C4CCCCC4)cc3)C2)nc(-c2ccncc2F)cc1=O | 8.66 |
| COc1ccc(NC(C)=O)cc1[C@H]1CN(c2nc(-c3ccncc3F)cc(=O)n2C)CCO1 | 9.32 |
| Cn1c(N2CCO[C@@H](c3ccc(N4CCC(N5CCCC5)CC4)cc3)C2)nc(-c2ccncc2F)cc1=O | 8.77 |
| CN(c1ccc([C@H]2CN(c3nc(-c4ccncc4F)cc(=O)n3C)CCO2)cc1)c1ccccn1 | 8.27 |
| Cn1c(N2CCO[C@@H](c3ccc(C(=O)N4CCOCC4)cc3)C2)nc(-c2ccncc2F)cc1=O | 8.13 |
| Cn1c(N2CCOC(c3ccc4c(c3)CCC(=O)N4)C2)nc(-c2ccncc2F)cc1=O (racemic) | 8.92 |
| CN(c1ccc([C@H]2CN(c3nc(-c4ccncc4F)cc(=O)n3C)CCO2)cc1)[C@@H]1CCOC1 | 8.41 |
